Test results: PMC6143625, “A high throughput screen for next-generation leads targeting malaria parasite transmission” (Nature Communications, 2018)

Columns and labels:
[1] = tested on: P. falciparum stage V male gametocytes (male gamete formation); assay: P. falciparum dual gamete formation assay (Pf DGFA), male readout (exflagellation), 48 h carry-over format; type: cell-based, Plasmodium falciparum NF54; settings: primary screen, 2 uM, 48 h incubation, single replicate
Experimental: (§1) P. falciparum NF54 strain (originally isolated from an imported malaria case in the Netherlands in the 1980s; BEI Resources, cat. no. MRA-1000) asexual and sexual stages culture was performed as previously described. Gametocyte cultures were initiated at 1% asexual ring stage parasitaemia and 4% haematocrit in 40 ml final volume. To induce gametocyte production, complete culture medium (CM) (RPMI 1640 supplemented with 25 mM HEPES, 50 µg ml^−1 hypoxanthine, 2 g l^−1 NaHCO3 and 10% pooled human male type A+ serum) was replaced daily for 14 days without fresh erythrocyte addition. Human serum was obtained from Interstate Blood Bank, A^+ serotype; no aspirin 2 h before drawing and no antimalarials 2 weeks before drawing. On day 14 after culture induction, gametocyte production was assessed by thin smear and Giemsa staining, and exflagellation accurately counted in a haemocytometer. Gametocyte cultures with >0.2% exflagellation (compared to total erythrocyte cell number) were deemed acceptable for use in the Pf DGFA. Note, all human biological samples were sourced ethically and their research use was in accord with the terms of the informed consents under an IRB/EC approved protocol.
(§2) In screening mode, the assay was performed as described in Delves et al.[35] with a mean Z′ factor of 0.56 ± 0.14 (SD) (male) and 0.71 ± 0.17 (SD) (female). Pooled mature gametocyte cultures with the capacity to yield >0.2% exflagellation (of total cells) were diluted in CM to 14 million cells per ml and so that 700,000 cells were dispensed in 50 µl into each well of the warmed 384-well screening plates. Parasites were incubated in the plates with compounds for 48 h in a humidified chamber under 92%N2/5% CO2/3% O2 gas mix before gamete formation was triggered by addition of 10 µl per well ookinete medium (RPMI 1640 supplemented with 25 mM HEPES, 50 µg ml^−1 hypoxanthine, 2 g l^−1 NaHCO3, 100 µM xanthurenic acid) containing 0.5 µg ml^−1 anti-Pfs25 clone 4B7 (BEI Resources, cat. no. MRA-315) conjugated to the fluorophore Cy3 (GE Healthcare), and also by cooling the plate at 4 °C for 4 min and then a further 5 min at 28 °C. Exflagellation was recorded immediately by brightfield microscopy using a Nikon Ti-E widefield microscope at ×4 objective, ×1.5 zoom, recording a 10-frame video time-lapse over 2 s for each well. Afterwards, plates were incubated in the dark at 28 °C for a further 24 h to allow female gametes to maximally express Pfs25 on their surface. Female gamete formation was recorded by single-image fluorescence microscopy using the same microscope and magnification as above. Exflagellation and female gamete formation were quantified by specific algorithms designed with the open-source ICY Image Analysis software.
(§3) Assay performance statistics, such as signal to background ratio, Z′ and robust 3×SD activity cut-off were calculated using templates in ActivityBase XE (IDBS, Guilford, Surrey, UK). Hit population analysis and visualisation were conducted using Spotfire DecisionSite (Spotfire, Inc., Somerville, Massachusetts). The pIC50 (−log IC50) values were obtained using the ActivityBase XE nonlinear regression function in the full curve analysis bundle. In screening mode, the Pf DGFA achieved a mean Z′ factor of 0.56 ± 0.14 (SD) (male) and 0.71 ± 0.17 (SD) (female).

[2] = tested on: P. falciparum stage V female gametocytes (female gamete formation); assay: P. falciparum dual gamete formation assay (Pf DGFA), female readout (Pfs25 expression), 48 h carry-over format; type: cell-based, Plasmodium falciparum NF54; settings: primary screen, 2 uM, 48 h incubation, single replicate
Experimental: as §1
as §2, with “Parasites were incubated in the plates with compounds for 48 h in a humidified chamber under” left out
as §3

In the case of `CN(C)C(=O)CN1CCC(c2c(C(N)=O)sc3ncccc23)C1` (centres unmarked) [DDD01056829], the “%Inhibition Male @2uM” value [1] is reported as 34.06% and the “%Inhibition Female @2uM” value [2] is reported as <30%.
In the case of `CN1CC2(CCC(C(=O)N3CCOCC3)CC2)Oc2ccccc2C1=O` (centres unmarked) [DDD01056893], the “%Inhibition Male @2uM” value [1] is reported as 30.45% and the “%Inhibition Female @2uM” value [2] is reported as <30%.
With `O=C(NC1CC1)[C@H]1CN(Cc2ccccc2)C[C@@H]1C(=O)c1ccccc1` [DDD01056910] the “%Inhibition Male @2uM” value [1] was 31.76% and the “%Inhibition Female @2uM” value [2] was <30%.
In the case of `CS(=O)(=O)N1CCCCC1c1ccc(Nc2cnccn2)nc1` (centres unmarked) [DDD01057097], the “%Inhibition Male @2uM” value [1] is reported as 34.23% and the “%Inhibition Female @2uM” value [2] is reported as <30%.
For `CN1CCOC(C)(C(=O)Nc2nccs2)C1` (centres unmarked) [DDD01057393], the “%Inhibition Male @2uM” value [1] was 32.46% and the “%Inhibition Female @2uM” value [2] was <30%.
In the case of `O=C(Cn1cnc2cc3c(cc21)OCCCO3)NCCc1ccccc1` [DDD01057871], the “%Inhibition Male @2uM” value [1] is reported as <30% and the “%Inhibition Female @2uM” value [2] is reported as 36.66%.
In the case of `COc1cccc(CC(=O)N2CCCC2c2nc(=O)c(C)c(C)[nH]2)c1` (centres unmarked) [DDD01059601], the “%Inhibition Male @2uM” value [1] is reported as <30% and the “%Inhibition Female @2uM” value [2] is reported as 33.02%.
For `CNc1cncc(C2CCCN2c2cc(C)ncn2)n1` (centres unmarked) [DDD01059901], the “%Inhibition Male @2uM” value [1] was 44.44% and the “%Inhibition Female @2uM” value [2] was <30%.
For `CC(=O)N1CCCC(c2ccccn2)C1` (centres unmarked) [DDD01059909], the “%Inhibition Male @2uM” value [1] was 30.93% and the “%Inhibition Female @2uM” value [2] was <30%.
In the case of `CN(C)C(=O)CN1CCC(c2cccc(Cc3ccc(F)cc3)n2)CC1` [DDD01060228], the “%Inhibition Male @2uM” value [1] is reported as 31.41% and the “%Inhibition Female @2uM” value [2] is reported as <30%.
`CC(C)CC(=O)N1CCN(Cc2cc(-c3ccncc3)nn2C)CC1` [DDD01060230] was tested, and the “%Inhibition Male @2uM” value [1] was <30% and the “%Inhibition Female @2uM” value [2] was 78.93%.
With `OC1(Cn2ccc3ncccc32)CCN(Cc2cc(F)cc(F)c2)CC1` [DDD01060275] the “%Inhibition Male @2uM” value [1] was 30.37% and the “%Inhibition Female @2uM” value [2] was <30%.
With `Cc1cncc(C(=O)N[C@@H]2CC[C@@H](N3CCOCC3)[C@@H]2O)c1` [DDD01060350] the “%Inhibition Male @2uM” value [1] was <30% and the “%Inhibition Female @2uM” value [2] was 35.23%.
With `CC(=O)N1CCN([C@@H]2CC[C@@H](NC(=O)c3cc(C)cs3)[C@H]2O)CC1` [DDD01060352] the “%Inhibition Male @2uM” value [1] was <30% and the “%Inhibition Female @2uM” value [2] was 32.18%.
`CC(C)(N)C(=O)N1CCCC1c1cncc(Oc2ccccc2)n1` (centres unmarked) [DDD01060400] was tested, and the “%Inhibition Male @2uM” value [1] was <30% and the “%Inhibition Female @2uM” value [2] was 49.04%.
With `Cc1nc2ccc(C(=O)N3CCn4c(nnc4C4CC4)C3)cc2nc1C` [DDD01060815] the “%Inhibition Male @2uM” value [1] was <30% and the “%Inhibition Female @2uM” value [2] was 31.88%.
`O=C(C1CCCCC1)N1CCC(c2[nH]nc3nccnc23)CC1` [DDD01060967] was tested, and the “%Inhibition Male @2uM” value [1] was <30% and the “%Inhibition Female @2uM” value [2] was 38.46%.
With `O=C(c1cn[nH]n1)N1CCCC1C1CCCCC1` (centres unmarked) [DDD01061770] the “%Inhibition Male @2uM” value [1] was <30% and the “%Inhibition Female @2uM” value [2] was 30.76%.
For `Cc1noc(C)c1CNC1CCN(c2ccccc2OC(F)F)C1` (centres unmarked) [DDD01061833], the “%Inhibition Male @2uM” value [1] was <30% and the “%Inhibition Female @2uM” value [2] was 39.11%.
For `CN(C)c1ccc(CNC(=O)Nc2ccc(S(=O)(=O)C(F)F)cc2)cc1` [DDD01062359], the “%Inhibition Male @2uM” value [1] was <30% and the “%Inhibition Female @2uM” value [2] was 41.45%.
With `Cc1ccc(OCCCC(=O)Nc2nonc2C)cc1C` [DDD01063175] the “%Inhibition Male @2uM” value [1] was <30% and the “%Inhibition Female @2uM” value [2] was 30.83%.
`Cc1noc(C(C)Nc2ccc3oc(C)nc3c2)n1` (centres unmarked) [DDD01064591] was tested, and the “%Inhibition Male @2uM” value [1] was <30% and the “%Inhibition Female @2uM” value [2] was 37.30%.
`CC1CN(C(=O)c2cnn(-c3ccccn3)c2C(C)C)CC(C)(C)O1` (centres unmarked) [DDD01064602] was tested, and the “%Inhibition Male @2uM” value [1] was <30% and the “%Inhibition Female @2uM” value [2] was 40.46%.
In the case of `CCOc1nnc(CN2CCN(CCOC)C(C)C2)s1` (centres unmarked) [DDD01065018], the “%Inhibition Male @2uM” value [1] is reported as 30.92% and the “%Inhibition Female @2uM” value [2] is reported as <30%.
In the case of `c1cc(NCc2ccsc2)cc(-c2nnc[nH]2)c1` [DDD01065418], the “%Inhibition Male @2uM” value [1] is reported as 31.81% and the “%Inhibition Female @2uM” value [2] is reported as <30%.
`Cc1nc(C)c(C(=O)N2CCc3c(Cl)cccc32)o1` [DDD01065842] was tested, and the “%Inhibition Male @2uM” value [1] was 32.65% and the “%Inhibition Female @2uM” value [2] was <30%.
`Cc1[nH]c(C2(N)CCCCC2)nc(=O)c1C` [DDD01066687] was tested, and the “%Inhibition Male @2uM” value [1] was <30% and the “%Inhibition Female @2uM” value [2] was 32.19%.
For `Cc1ccc(N2CCCC(N(C)Cc3cc(C)on3)C2)nn1` (centres unmarked) [DDD01069945], the “%Inhibition Male @2uM” value [1] was <30% and the “%Inhibition Female @2uM” value [2] was 39.02%.
For `COc1cc(CNC(C)c2cccc(Cl)c2)cc(OC)c1OC` (centres unmarked) [DDD01069994], the “%Inhibition Male @2uM” value [1] was 35.70% and the “%Inhibition Female @2uM” value [2] was <30%.
`COCc1noc(C2(c3cccc(Cl)c3)CCOCC2)n1` [DDD01070409] was tested, and the “%Inhibition Male @2uM” value [1] was 71.92% and the “%Inhibition Female @2uM” value [2] was <30%.
In the case of `O=C(CNc1cc2c(cc1Cl)OCCO2)NCC(F)(F)F` [DDD01070591], the “%Inhibition Male @2uM” value [1] is reported as <30% and the “%Inhibition Female @2uM” value [2] is reported as 39.90%.
In the case of `CCS(=O)(=O)NC1CCCN(c2ccc(F)cc2C)C1=O` (centres unmarked) [DDD01074148], the “%Inhibition Male @2uM” value [1] is reported as <30% and the “%Inhibition Female @2uM” value [2] is reported as 33.10%.
In the case of `COC(=O)C1CCCN1C(=O)c1ccc(-n2nc(C)cc2C)cc1` (centres unmarked) [DDD01075977], the “%Inhibition Male @2uM” value [1] is reported as <30% and the “%Inhibition Female @2uM” value [2] is reported as 33.22%.
With `Fc1ccc(-c2nnc(CNC3CCc4ncnn4C3)o2)cc1` (centres unmarked) [DDD01076055] the “%Inhibition Male @2uM” value [1] was <30% and the “%Inhibition Female @2uM” value [2] was 36.38%.
With `Cc1noc(CS(=O)(=O)C(C)C(=O)N(C)c2ccccc2)n1` (centres unmarked) [DDD01076606] the “%Inhibition Male @2uM” value [1] was 31.49% and the “%Inhibition Female @2uM” value [2] was <30%.
In the case of `CN(C)C(=O)c1ccc(NCCNc2ccc3ccccc3n2)nc1` [DDD01076923], the “%Inhibition Male @2uM” value [1] is reported as 31.80% and the “%Inhibition Female @2uM” value [2] is reported as <30%.
With `CN(CC(N)=O)C(=O)C1Cc2cc(Cl)ccc2O1` (centres unmarked) [DDD01077287] the “%Inhibition Male @2uM” value [1] was <30% and the “%Inhibition Female @2uM” value [2] was 46.87%.
With `O=S(=O)(NC1CCCCC12OCCO2)c1cc(F)cc(F)c1` (centres unmarked) [DDD01077321] the “%Inhibition Male @2uM” value [1] was <30% and the “%Inhibition Female @2uM” value [2] was 41.54%.
In the case of `CC(CCc1ccccc1)N1CCC(C(=O)Nc2cnccn2)CC1` (centres unmarked) [DDD01077885], the “%Inhibition Male @2uM” value [1] is reported as 52.25% and the “%Inhibition Female @2uM” value [2] is reported as <30%.
In the case of `CC(C)c1nsc(N2CCc3sccc3C2)n1` [DDD01078291], the “%Inhibition Male @2uM” value [1] is reported as 38.07% and the “%Inhibition Female @2uM” value [2] is reported as <30%.
In the case of `CSc1ccc(OCCN2CCNC(=O)CC2)cc1` [DDD01078342], the “%Inhibition Male @2uM” value [1] is reported as <30% and the “%Inhibition Female @2uM” value [2] is reported as 31.10%.
With `CC(CNC(=O)c1cnc[nH]1)Oc1ccc(Cl)cc1` (centres unmarked) [DDD01078520] the “%Inhibition Male @2uM” value [1] was <30% and the “%Inhibition Female @2uM” value [2] was 32.98%.
For `Cc1cc(C)c(C(=O)N2CCc3c(ncn3CCc3ccccc3)C2)[nH]1` [DDD01078816], the “%Inhibition Male @2uM” value [1] was <30% and the “%Inhibition Female @2uM” value [2] was 31.51%.
With `CCS(=O)(=O)c1ccc(N2CCC(NC(C)=O)CC2)cc1` [DDD01080141] the “%Inhibition Male @2uM” value [1] was <30% and the “%Inhibition Female @2uM” value [2] was 30.47%.
`CCN(CC)CC(=O)NCCc1csc(N2CCCC2)n1` [DDD01080188] was tested, and the “%Inhibition Male @2uM” value [1] was <30% and the “%Inhibition Female @2uM” value [2] was 40.13%.
With `Cc1ccc(C2COCCN2C(=O)c2ccc(CN(C)C)cc2)o1` (centres unmarked) [DDD01080189] the “%Inhibition Male @2uM” value [1] was <30% and the “%Inhibition Female @2uM” value [2] was 41.68%.
